In brackets after ≈: the same amount, converted by molar mass.
Assays:
Type in all cases: cell-based
[1] = system: E. coli ATCC 25922; test: MIC by broth microdilution, BLI alone; settings: Escherichia coli, ATCC25922, read-out: Minimal Inhibitory Concentrations (MIC) of selected BLIs
Description: (§1) MICs were determined by the broth microdilution method in accordance with Clinical and Laboratories Institute (CLSI) guidelines. In brief, fresh overnight bacterial cultures were suspended in sterile saline, and adjusted to a 0.5 McFarland turbidity standard. Bacterial suspensions were then diluted in cation adjusted Mueller-Hinton Broth (MHB II; BBL) to yield a final inoculum of approximately 5×10^5 colony-forming units (CFU)/mL. A master plate of antibiotics was prepared at a concentration equivalent to hundred-fold the highest desired final concentration in 100% dimethyl sulfoxide (DMSO). The master antibiotic plate was then diluted by serial twofold dilution with a multichannel pipette. The resulting dilution series of compounds were diluted 1:10 with sterile water or a solution of beta-lactamase inhibitor prepared at a concentration equivalent to eleven-fold the desired final concentration in deionized water leading to a 10% DMSO final concentration. A volume of 10 μL of the drug dilution series was transferred to 96-well assay plates. Assay plates were inoculated with 90 μL of bacterial suspensions and incubated at 35° C. for 20 hrs. The assay plates were read using a microtiter plate reader (Molecular Devices) at 600 nm as well as by visual observation with a reading mirror. The lowest concentration of the compound that prevented visible growth was recorded as the MIC. Performance of the assay was monitored by testing aztreonam against laboratory quality control strains in accordance with guidelines of the CLSI.

[2] = system: K. pneumoniae ATCC 43816; test: MIC by broth microdilution, BLI alone; settings: Klebsiella pneumoniae, ATCC43816, read-out: Minimal Inhibitory Concentrations (MIC) of selected BLIs
Description: as §1

[3] = system: P. aeruginosa ATCC 27853; test: MIC by broth microdilution, BLI alone; settings: Pseudomonas aeruginosa, ATCC27853, read-out: Minimal Inhibitory Concentrations (MIC) of selected BLIs
Description: as §1

[4] = system: E. coli (AmpC); test: microbe, parasite or virus in culture; settings: for MIC of aztreonam with beta-lactamase inhibitor: AZ + BLI at 2 μg/mL; for Activity of Beta-Lactam 5 with beta-lactamase inhibitor: Beta-Lactam 5 + BLI at 2 μg/mL; for MIC of ceftazidime with beta-lactamase inhibitor: Ceft + BLI at 2 μg/mL; for MIC of meropenem with beta-lactamase inhibitor: Mero + BLI at 2 μg/mL
Description: as §1
(§2) Synergy or potentiation of beta-lactam antibiotics through inhibition of Q-lactamases was assessed against an isogenic panel of E. coli strains, each expressing a unique beta-lactamase, and against clinical strains.
The gene encoding AmpC was PCR amplified from the genome of strain P. aeruginosa PAO1 (NB52019) (GenBank ID U5R279) using primer pair E252 (gccCTCGAGggcgaggccccggcggatcgc) (SEQ ID NO: 17) and E253 (tgaGAATTCtcagcgcttcagcggcacct) (SEQ ID NO: 18).
The PCR products were then digested with XhoI and EcoRI and ligated into similarly digested plasmid pAH63-pstS(BlaP). Plasmid pAH63-pstS(BlaP) is a derivative of plasmid pAH63 (J Bacteriol: 183(21): 6384-6393) made by cloning the TEM-1 (bla) promoter and signal peptide encoding region from plasmid pBAD (J Bacteriol. 1995 July 177(14):4121-30) into plasmid pAH63. This fragment was PCR amplified from pBAD using primer pair E192 (ttcaCTGCAGtgaacgttgcgaagcaacggC) (SEQ ID NO:19) and E194 (TCGAggatcctcgagagcaaaaacaggaaggcaaaatgccg) (SEQ ID NO:20), digested with PstI and BamHI and inserted into similarly digested plasmid pAH63. Therefore, expression of beta-lactamases from pAH63-pstS(BlaP) based constructs is constitutive and the signal sequence is provided to direct these proteins to the periplasm. Plasmid pAH63 based vectors are used for insertion into the genome in single copy, however, to provide higher expression levels to allow more sensitive detection of the susceptibility of compounds to the expressed beta-lactamases, the expression inserts contained in these vectors were moved to the replicative multicopy vector pBAD-Kan (J Bacteriol. 1995 July 177(14):4121-30). To accomplish this, the inserts encompassing the beta-lactamase genes, with the associated TEM promoter and signal sequences, were PCR amplified from their corresponding vectors using primer E268 (ccgTCTAGAcggatggcctttttgcgtttc) (SEQ ID NO:21) and E202 (aatcGAATTCttactgaccattaacgcccaagc) (SEQ ID NO:22) for the KPC2 construct, E204 (aatcGAATTCttaacgctgccagtgctcaatc) (SEQ ID NO:23) for the SHV-12 construct and E203 (aatcGAATTCttacagaccgtcggtgacaatc) (SEQ ID NO:24) for the CTX-M-15 construct. These fragments were then digested with XbaI and EcoRI, and each was inserted into pBAD18-kan that had been digested with the same enzymes to generate multicopy vectors expressing KPC-2, SHV-12 and CTX-M-15, respectively. […]

[5] = system: K. pneumoniae NB29323 (CTX-M-15, OXA-48, VEB-1); settings: AZ + BLI at 2 μg/mL
Description: as §1, §2

[6] = system: Enterobacter cloacae NB25044 (CTX-M-12, ACT, KPC-2); settings: AZ + BLI at 2 μg/mL
Description: as §1, with “MIC.” for “MIC. Performance of the assay was monitored by testing aztreonam against laboratory quality control strains in accordance with guidelines of the CLSI.”
as §2

Structure (SMILES): O=C1NC[C@@H]2C[C@@H]3CN(C(=O)N3OS(=O)(=O)[O-])[C@H]12.[Na+] [Example 1, Sodium (4R,5aS,8aS)-2,8-dioxohexahydro-2H-1,4-methanopyrrolo[3,4-d][1,3]diazepin-3(4H)-yl sulfate]
- MIC [1]: > 64 µg/mL
- MIC [2]: > 64 µg/mL
- MIC [3]: > 64 µg/mL
- MIC of aztreonam with beta-lactamase inhibitor [4]: 0.125 µg/mL
- Activity of Beta-Lactam 5 with beta-lactamase inhibitor [4]: 0.25 µg/mL
- MIC of ceftazidime with beta-lactamase inhibitor [4]: 0.25 µg/mL
- MIC of meropenem with beta-lactamase inhibitor [4]: ≤0.06 µg/mL
- Activity of aztreonam with beta-lactamase inhibitor [5]: 0.25 µg/mL
- Activity of aztreonam with beta-lactamase inhibitor [6]: 4 µg/mL

Structure (SMILES): NC(=O)[C@@H]1CC[C@@H]2CN1C(=O)N2OS(=O)(=O)O [Avibactam]
- MIC [1]: 16 µg/mL (≈ 60.3 µM)
- MIC [2]: 32 µg/mL (≈ 121 µM)
- MIC [3]: > 64 µg/mL
- MIC of aztreonam with beta-lactamase inhibitor [4]: ≤0.06 µg/mL
- Activity of Beta-Lactam 5 with beta-lactamase inhibitor [4]: 0.125 µg/mL
- MIC of ceftazidime with beta-lactamase inhibitor [4]: 0.125 µg/mL
- MIC of meropenem with beta-lactamase inhibitor [4]: ≤0.06 µg/mL
- Activity of aztreonam with beta-lactamase inhibitor [5]: 2 µg/mL
- Activity of aztreonam with beta-lactamase inhibitor [6]: 8 µg/mL

Structure (SMILES): O=C(NC1CCNCC1)[C@@H]1CC[C@@H]2CN1C(=O)N2OS(=O)(=O)O [Relebactam]
- MIC [1]: > 64 µg/mL
- MIC [2]: > 64 µg/mL
- MIC [3]: > 64 µg/mL
- MIC of aztreonam with beta-lactamase inhibitor [4]: 0.125 µg/mL
- Activity of Beta-Lactam 5 with beta-lactamase inhibitor [4]: 0.25 µg/mL
- MIC of ceftazidime with beta-lactamase inhibitor [4]: 0.125 µg/mL
- MIC of meropenem with beta-lactamase inhibitor [4]: ≤0.06 µg/mL
- Activity of aztreonam with beta-lactamase inhibitor [5]: 8 µg/mL
- Activity of aztreonam with beta-lactamase inhibitor [6]: >64 µg/mL
